Laboratory results reported in patent publication US20090270490A1, “METHODS INVOLVING ALDOSE REDUCTASE INHIBITION” (THE BOARD OF REGENTS OF THE UNIVERSITY OF TEXAS SYSTEM, priority 2008, published 2009).

Legend:
NF-κB DNA binding = assay: Electrophoretic mobility shift assay (EMSA) of NF-κB in HLEC; assay type: cell-based, human; details: inhibitor 20 μM, no b-FGF
Experimental: Adenovirus SV-40 viral DNA-transformed human lens epithelial cells (HLE-B3; HLEC) were purchased from ATCC. Cells were maintained in DMEM supplemented with 20% heat-inactivated FBS, and 50 μg/ml gentamicin. The cells were grown in a humidified incubator at 37° C. and 5% CO2. The HLEC were pretreated with 20 μM of AR inhibitors sorbinil or zopolrestat for overnight in medium containing 0.5% FBS followed by stimulation with various concentrations (0-100 ng/mL) of b-FGF for 24 h and cell viability and expression of α-SMA, β-crystallin and ICAM-1 was quantified. To investigate the effect of b-FGF on NF-κB and MAPK activation, HLEC were starved in medium containing 0.5% FBS with or without AR inhibitors for overnight. The cells were washed with serum-free medium followed by incubation in serum-free medium without or with AR inhibitor containing 50 ng/mL b-FGF for different time intervals.
The HLEC in 150 cm^2 culture flasks were pretreated without or with AR inhibitors for 24 h in serum-free medium, followed by treatment with b-FGF (50 ng/ml) for 1 h at 37° C. The nuclear extracts were prepared as described earlier (Ramana et al., 2003). The Consensus oligonucleotides for NF-κB transcription factors were 5′-end labeled using T4 polynucleotide kinase. EMSA was performed as described earlier (Ramana et al., 2003.). […]

[1] = tested on: lens epithelial cells in pig eye capsular bags; assay: Lens epithelial cell growth in pig eye capsular bags (trypan blue cell counting); assay type: cell-based; details: 7 days culture
Experimental: (§1) Pig eye capsular bags were prepared by phacoemulsification followed by capsulorhexis and incubated in Dulbecco's Modified Eagle's Medium (DMEM) supplemented with 10% FBS and 1% penicillin and streptomycin without or with AR inhibitors, sorbinil (50 μM) and fidarestat (10-30 μM) for 7 days in 5% CO2 condition at 37° C. Medium was replaced with fresh medium without or with AR inhibitors every day. At the end of incubation, capsular bags were examined under the dissection microscope, cut into four pieces and flat mounted on glass slide with cellular side facing up. The pieces of capsular bags were fixed with 4% paraformaldehyde for 3-4 h at 4° C. After fixation, they were washed, transferred to 70% alcohol and stored at 4° C. until used for immunohistochemical analysis.
The pig eye capsular bags were incubated for 7 days as described above. The lens epithelial cells were detached from capsular bags by incubating with 0.25% trypsin-EDTA solution. The trypsinized cells were harvested, washed with PBS and re-suspended in PBS. To determine cell growth, equal volumes of cell suspension and trypan blue were mixed and the cells which excluded trypan blue dye were counted manually by using a hemocytometer.
Phacoemulsification technique for cataract surgery in humans was used to operate enucleated pig eyes. After removing the lens, a capsular tension ring was inserted in the capsular bag. The capsular bag was then cultured in complete growth-medium without or with AR inhibitors. […] After 7 days in culture, the ring was removed and the cells were harvested by trypsinization. The harvested cells were counted using trypan blue exclusion principle.

[2] = tested on: α-SMA, β-crystallin and ICAM-1 expression; assay: Immunohistochemical analysis of flat-mounted pig eye capsular bags; assay type: cell-based; details: 7 days of culture; sorbinil 50 μM, fidarestat 30 μM
Experimental: as §1
The capsular bag specimens flat mounted on slides were washed thrice with PBS and incubated with blocking solution containing 2% BSA, 0.1% Triton-X100, 5% normal goat serum for 1 h at room temperature. Subsequently specimens were washed, incubated with antibodies against α-SMA, β-crystallin, PCNA, and ICAM-1 for 1 h at room temperature. The slides were stained with either LSAB-HRP system (Dako, Carpinteria, Calif.) or incubated with respective FITC labeled secondary antibodies. The samples were examined by using Nikon epifluoroscence microscope (EPI-800 microscope) connected to a computer with Metamorph software.

Row | Compound | basal activity of NF-κB with inhibitor alone (NF-κB DNA binding) | most effective dose at which LEC growth was significantly (p<0.001) inhibited ([1]; doses 10-30 μM tested) | inhibiting the growth of LEC in pig eye capsular bags ([1]; fidarestat 10-30 μM) | inhibition at 50 µM ([1]; Sus scrofa, Epithelial cell, 168 h, sorbinil 50 μM, pig eye capsular bags, vs control) | expression of α-SMA and β-crystallin in capsular bags (immunohistochemistry) [2]
1 | O=C(O)Cc1nn(Cc2nc3cc(C(F)(F)F)ccc3s2)c(=O)c2ccccc12 [zopolrestat] | did not affect | – | – | – | –
2 | NC(=O)[C@@H]1C[C@]2(NC(=O)NC2=O)c2cc(F)ccc2O1 [fidarestat, (2S,4S)-2-aminoformyl-6-fluoro-spiro[chroman-4,4′-imidazolidine]-2′,5′-dione] | – | 30 µM | dose-dependent response | – | –
3 | O=C1NC(=O)[C@@]2(CCOc3ccc(F)cc32)N1 [sorbinil, (S)-6-fluoro-2,3-dihydrospiro[4H-1-benzopyran-4,4′-imidazolidine]-2′,5′-dione] | did not affect | – | – | ~74% | only few cells expressed α-SMA and β-crystallin
